organism: Homo sapiens; test: Inhibition of FTase at 100 nM by SPA

Row | inhibition | Compound
1 | 69% | Cn1cncc1C(N)(c1ccc2c(c1)c(-c1cccc(Cl)c1)nc1nnnn12)c1ccc(Cl)s1 (stereo not drawn)
2 | 32% | OC(c1ccc2c(c1)c(-c1cccc(Cl)c1)cc1nnnn12)c1cncn1Cc1ccc(Cl)cc1 (stereo not drawn)

target: not listed separately; test: Inhibition of FTase by SPA; parameters: species or system Homo sapiens

Row | Compound | IC50
3 | Cn1cncc1[C@](N)(c1ccc(Cl)cc1)c1ccc2c(c1)c(-c1cccc(Cl)c1)cc(=O)n2C [(S)-TIPIFARNIB] | 0.9 nM
4 | Cn1cncc1C(O)(c1ccc2c(c1)c(-c1cccc(Cl)c1)nc1nnnn12)c1ccc(Cl)s1 (stereo not drawn) | 16 nM
5 | Cn1cncc1C(c1ccc2c(c1)c(-c1cccc(Cl)c1)nc1nnnn12)n1ccnc1-c1ccc(F)cc1 (stereo not drawn) | 4 nM
6 | CCc1nccn1C(c1ccc2c(c1)c(-c1cccc(Cl)c1)nc1nnnn12)c1cncn1C (stereo not drawn) | 5 nM
7 | N#Cc1ccc(Cn2cncc2C(O)c2ccc3c(c2)c(-c2cccc(Cl)c2)cc2nnnn23)cc1 (stereo not drawn) | 11 nM
8 | Cn1cncc1C(N)(c1ccc2c(c1)c(-c1cccc(Cl)c1)nc1nnnn12)c1ccc(Cl)s1 (stereo not drawn) | < 100 nM
9 | OC(c1ccc2c(c1)c(-c1cccc(Cl)c1)cc1nnnn12)c1cncn1Cc1ccc(Cl)cc1 (stereo not drawn) | > 100 nM

Further lines, results first:

Row | IC50 | Compound
10 | 3.5 nM | Cn1cncc1C(N)(c1ccc(Cl)cc1)c1ccc2c(c1)c(-c1cccc(Cl)c1)nc1nnnn12 (stereo not drawn)
11 | 1 nM | Cn1cncc1C(c1ccc2c(c1)c(-c1cccc(Cl)c1)nc1nnnn12)n1ccnc1-c1ccccc1 (stereo not drawn)
12 | 1 nM | Cn1cncc1C(c1ccc2c(c1)c(-c1cccc(Cl)c1)nc1nnnn12)n1ccnc1-c1cccc(C#N)c1 (stereo not drawn)
13 | 3.5 nM | Cn1cncc1C(N)(c1ccc(Cl)cc1)c1ccc2c(c1)c(-c1cccc(Cl)c1)cc1nnnn12 (stereo not drawn)

— ChEMBL document CHEMBL1147213, “Impact on farnesyltransferase inhibition of 4-chlorophenyl moiety replacement in the Zarnestra series” (Eur J Med Chem, 2007)
